From the OligoGym collection come the findings set out here.

In this data set the target is IRF5. As to conditions: ASO.

Several values for one entry are separate records, joined by “and”; a condition that tells them apart may be missing. Equal entries are not always repeated. After the bases stand the sugars from the 5' end (letter, count) and the backbone: PS all phosphorothioate, else s phosphorothioate and o phosphodiester by linkage. Methylation of C is not given here. e = 2'-O-(2-methoxyethyl) (MOE); k = constrained ethyl (cEt); d = 2'-deoxy (DNA); m = 2'-O-methyl

On to “AGGAAGTGAGTCTCAA (sugars kkkdddddddddkeke, PS)”, for which the target mRNA inhibition (KARPAS-229, 4 µM) is 21%.

Consider “GGGCACAGCGCCAGGTT (sugars kddddddddddkekekd, PS)”, for which the target mRNA inhibition by setting is: (KARPAS-229, 0.44444 µM) 23%; (KARPAS-229, 1.33333 µM) 40%; (KARPAS-229, 4 µM) 37% and 62%; (KARPAS-229, 12 µM) 87%.

In the case of GCACTGACACAGGCGG (sugars k3 d10 k3, PS), the target mRNA inhibition (KARPAS-229, 4 µM) is 14% and 0%.

Consider “GTCTAGTGTCATGGAA (sugars kkddddddddkekekk, PS)”, for which the target mRNA inhibition (KARPAS-229, 4 µM) was 9%.

“CAGGTTCTTGGACTCT (sugars kekdddddddddeekk, PS)”: the target mRNA inhibition was 34% (KARPAS-229, 0.44444 µM); 48% (KARPAS-229, 1.33333 µM); 48% and 62% (KARPAS-229, 4 µM); 74% (KARPAS-229, 12 µM).

In turn, “CACATCTCCACATCAG (sugars kkkddddddddkdkdk, PS)” had a target mRNA inhibition (KARPAS-229, 4 µM) of 39%.

Take “GGAAGTGAGTCTCAAA (sugars k2 d9 e3 k2, PS)”: under “KARPAS-229, 4 µM”, the target mRNA inhibition was 32%.

For the setting “KARPAS-229, 4 µM”, “CATTCCATATACACAC (sugars kkkddddddddkdkdk, PS)” returned a target mRNA inhibition of 40%.

Turning to “CCAATGCAACATCCAT (sugars kkdddddddddkekek, PS)”, under “KARPAS-229, 4 µM”, the target mRNA inhibition worked out at 0%.

In turn, TTTGTGACTGTATTAC (sugars k3 d10 k3, PS) showed a target mRNA inhibition (KARPAS-229, 4 µM) of 50%.

“TGTCTAGTGTCATGGA (sugars kkddddddddddkeke, PS)”: under “KARPAS-229, 4 µM”, the target mRNA inhibition is 44%.

Regarding “GATGGTGTTATCTCCG (sugars k3 d9 k3 e1, PS)”, for the setting “KARPAS-229, 4 µM”, the target mRNA inhibition was determined as 0%.

As to “CCTTCTGCAGGGAGTC (sugars kkkddddddddkdkdk, PS)”, the target mRNA inhibition (KARPAS-229, 4 µM) was determined as 0%.

“CCCAATGCAACATCCA (sugars kkdddddddddkekek, PS)” returned a target mRNA inhibition (KARPAS-229, 4 µM) of 0%.

On to “TGCACTGACACAGGCG (sugars kkdddddddddkekek, PS)”, for which, where the note is “KARPAS-229, 4 µM”, the target mRNA inhibition worked out at 0%.

The sequence “GAGTCATGGGCTGAGG (sugars kkddddddddkekekk, PS)” registered a target mRNA inhibition (KARPAS-229, 4 µM) of 0%.

“AGTCATGGGCGTGAGGC (sugars kdddddddddkekeked, PS)” displayed a target mRNA inhibition (KARPAS-229, 4 µM) of 17%.

For the sequence “ATGGTGTTATCTCCGT (sugars kkddddddddkekekk, PS)”, where the note is “KARPAS-229, 4 µM”, the target mRNA inhibition came to 0%.

On to “GCACTGACACAGGCGG (sugars kdddddddddkekeke, PS)”, for which the target mRNA inhibition (KARPAS-229, 4 µM) was 0%.

As for “ATCACCACTGTGTACC (sugars kkkddddddddkekek, PS)”, the target mRNA inhibition (KARPAS-229, 4 µM) came out at 0%.

“GGTCTGGCCCTTTTGG (sugars kkddddddddkekekk, PS)” registered a target mRNA inhibition (KARPAS-229, 4 µM) of 0%.

On to “GGTCTTGACCTCCCGC (sugars kkkddddddddkekek, PS)”, for which the target mRNA inhibition (KARPAS-229, 4 µM) worked out at 29%.

Take “TGAGTCATGGGCTGAG (sugars kkdddddddddkdkdk, PS)”: for the setting “KARPAS-229, 4 µM”, the target mRNA inhibition was determined as 12%.

“GTGAGTCTCAAACCAG (sugars kkkddddddddkdkdk, PS)” yielded a target mRNA inhibition (KARPAS-229, 4 µM) of 0%.

Regarding “CAGGTTCTTGGACTCT (sugars kkdddddddddkekek, PS)”, where the note is “KARPAS-229, 4 µM”, the target mRNA inhibition is 0%.

As for “CATTCCATATACACAC (sugars kkdddddddddkekek, PS)”, the target mRNA inhibition (KARPAS-229, 4 µM) was found to be 54%.

Where the note is “KARPAS-229, 4 µM”, “CACTGACACAGGCGGA (sugars kkdddddddddkekek, PS)” showed a target mRNA inhibition of 0%.

Where the note is “KARPAS-229, 4 µM”, “GTGTATTTCCCTGTCT (sugars kkddddddddkekekk, PS)” displayed a target mRNA inhibition of 0%.

On to TCATTTGCCTTCTGCA (sugars k3 d10 k3, PS), for which the target mRNA inhibition (KARPAS-229, 4 µM) was found to be 6%.

“GCTTGGTCTTGACCTC (sugars k2 d9 e3 k2, PS)” gave a target mRNA inhibition (KARPAS-229, 4 µM) of 10%.

Sequence “GTCTTTGAGGTCTGGG (sugars kddddddddddkekek, PS)” returned a target mRNA inhibition (KARPAS-229, 4 µM) of 0%.

Consider “GAAGTGAGTCTCAAAC (sugars kddddddddddkekek, PS)”, for which the target mRNA inhibition (KARPAS-229, 4 µM) stood at 44%.

Consider “CACATCTCCACATCAG (sugars kkkdddddddddkeke, PS)”, for which, under “KARPAS-229, 4 µM”, the target mRNA inhibition came to 38%.

As for “GCTTGGTCTTGACCTC (sugars kkddddddddkekekk, PS)”, the target mRNA inhibition (KARPAS-229, 4 µM) was determined as 21%.

The sequence “TCCAATTTTGCATTCC (sugars kkddddddddkekekk, PS)” displayed a target mRNA inhibition (KARPAS-229, 4 µM) of 15%.

As for “GGGCACAGCGCAGGTT (sugars kkddddddddkekekk, PS)”, the target mRNA inhibition is, setting by setting: (KARPAS-229, 0.44444 µM) 15%; (KARPAS-229, 1.33333 µM) 32%; (KARPAS-229, 4 µM) 61% and 66%; (KARPAS-229, 12 µM) 76%.

For “TTATTTCTGCTCCAGG (sugars kkkddddddddkdkdk, PS)”, the target mRNA inhibition is, setting by setting: (KARPAS-229, 0.44444 µM) 42%; (KARPAS-229, 1.33333 µM) 62%; (KARPAS-229, 4 µM) 57% and 67%; (KARPAS-229, 12 µM) 79%.

As for TACCCAATGCAACATC (sugars k3 d10 k3, PS), the target mRNA inhibition (KARPAS-229, 4 µM) amounted to 0%.

Under “KARPAS-229, 4 µM”, “ACCACTGTGTACCCCA (sugars kkkddddddddkdkdk, PS)” displayed a target mRNA inhibition of 40%.

Where the note is “KARPAS-229, 4 µM”, “GTCTTGACCTCCCGCT (sugars kkkddddddddkekek, PS)” displayed a target mRNA inhibition of 23%.

For the setting “KARPAS-229, 4 µM”, “GGTCTGGCCCTTTTGG (sugars kkkddddddddkdkdk, PS)” gave a target mRNA inhibition of 0%.

Regarding ATCACCACTGTGTACC (sugars k3 d10 k3, PS), the target mRNA inhibition (KARPAS-229, 4 µM) was 11%.

Where the note is “KARPAS-229, 4 µM”, “GGAGTGAGACGAGCAA (sugars kkddddddddkekekk, PS)” returned a target mRNA inhibition of 38%.

As to “CACTGACACAGGCGGA (sugars kdddddddddddekek, PS)”, under “KARPAS-229, 4 µM”, the target mRNA inhibition stood at 0%.

For “GGTGTATTTCCCTGTC (sugars kddddddddddkekek, PS)”, the target mRNA inhibition (KARPAS-229, 4 µM) was 0%.

“TGAGTCTCAAACCAGG (sugars k2 d9 e3 k2, PS)” had a target mRNA inhibition (KARPAS-229, 4 µM) of 0%.

Regarding “AGGTTCTTGGACTCTC (sugars k3 d9 k3 e1, PS)”, under “KARPAS-229, 4 µM”, the target mRNA inhibition was found to be 19%.

“GTTCTTGGACTCTCAA (sugars k2 d9 e3 k2, PS)” showed a target mRNA inhibition (KARPAS-229, 4 µM) of 22%.

In the case of “CACATCTCCACATCAG (sugars kekdddddddddeekk, PS)”, the target mRNA inhibition (KARPAS-229, 4 µM) was found to be 26%.

With CAATGCAACATCCATC (sugars k3 d10 k3, PS), the target mRNA inhibition (KARPAS-229, 4 µM) stood at 0%.

In the case of “TCTGAUATGATACCTA (sugars k3 d2 m1 d7 k3, PS)”, the target mRNA inhibition reads like this: (A-431, 0.00412 µM) 0%; (A-431, 0.01225 µM) 12%; (A-431, 0.03704 µM) 35%; (A-431, 0.11111 µM) 58%; (A-431, 0.33333 µM) 79%; (A-431, 1 µM) 83%.

Take “CATTCCATATACACAC (sugars kkkdddddddddkeke, PS)”: under “KARPAS-229, 4 µM”, the target mRNA inhibition came to 28%.

“GGTCTTTGAGGTCTGG (sugars k2 d9 e3 k2, PS)”: the target mRNA inhibition was 22% (KARPAS-229, 0.44444 µM); 58% (KARPAS-229, 1.33333 µM); 74% and 69% (KARPAS-229, 4 µM); 79% (KARPAS-229, 12 µM).

Take “TATTTCTGCTCCAGGT (sugars kkdddddddddkdkdk, PS)”: the target mRNA inhibition (KARPAS-229, 4 µM) was found to be 27%.

On to “AGCTTGGTCTTGACCT (sugars kkddddddddddkeke, PS)”, for which the target mRNA inhibition (KARPAS-229, 4 µM) came to 0%.

Turning to “GGTCTGGCCCTTTTGG (sugars kkdddddddddkekek, PS)”, the target mRNA inhibition (KARPAS-229, 4 µM) is 3%.

With CACATCTCCACATCAG (sugars k3 d10 k3, PS), where the note is “KARPAS-229, 4 µM”, the target mRNA inhibition was 45%.

“TGTCTAGTGTCATGGA (sugars kkddddddddkekekk, PS)” gave a target mRNA inhibition (KARPAS-229, 4 µM) of 10%.

For the setting “KARPAS-229, 4 µM”, “AGGAAGTGAGTCTCAA (sugars kkddddddddkekekk, PS)” yielded a target mRNA inhibition of 20%.

In turn, “GCTTGGTCTTGACCTC (sugars kkdddddddddkekek, PS)” registered a target mRNA inhibition (KARPAS-229, 4 µM) of 33%.

On to “GCTGTCACATCTCCAC (sugars kkkdddddddddkeke, PS)”, for which, where the note is “KARPAS-229, 4 µM”, the target mRNA inhibition stood at 3%.

In the case of “CAGGTTCTTGGACTCT (sugars kkkddddddddkdkdk, PS)”, the target mRNA inhibition (KARPAS-229, 4 µM) is 0%.

Where the note is “KARPAS-229, 4 µM”, AATTTTGCATTCCATA (sugars k3 d10 k3, PS) came in with a target mRNA inhibition of 41%.

On to “ACCATTCTATGCCTTT (sugars kkddddddddddkeke, PS)”, for which, for the setting “KARPAS-229, 4 µM”, the target mRNA inhibition amounted to 51%.

Turning to “TATCTCCGTCCTGGCT (sugars kdddddddddkekeke, PS)”, the target mRNA inhibition (KARPAS-229, 4 µM) amounted to 0%.

On to “TGTCTAGTGTCATGGA (sugars kkdkdddddddeeekk, PS)”, for which the target mRNA inhibition is, setting by setting: (A-431, 0.00412 µM) 0%; (A-431, 0.01225 µM) 5%; (A-431, 0.03704 µM) 6%; (A-431, 0.11111 µM) 24%; (A-431, 0.33333 µM) 23%; (A-431, 1 µM) 41%.

As for AGGGCACAGCGCAGGT (sugars k3 d10 k3, PS), under “KARPAS-229, 4 µM”, the target mRNA inhibition came out at 2%.

Take “GGTTCTTGGACTCTCA (sugars kddddddddddkekek, PS)”: the target mRNA inhibition (KARPAS-229, 4 µM) amounted to 9%.

For “GGTTCTTGGACTCTCA (sugars kkkdddddddddkeke, PS)”, the target mRNA inhibition runs as follows: (KARPAS-229, 0.44444 µM) 41%; (KARPAS-229, 1.33333 µM) 56%; (KARPAS-229, 4 µM) 48% and 67%; (KARPAS-229, 12 µM) 81%.

For the sequence GTTATCTCCGTCCTGG (sugars k3 d10 k3, PS), the target mRNA inhibition (KARPAS-229, 4 µM) came out at 31%.

For the setting “KARPAS-229, 4 µM”, “CATTCCATATACACAC (sugars k2 d8 e4 k2, PS)” gave a target mRNA inhibition of 21%.

As for ACCATTCTATGCCTTT (sugars k3 d10 k3, PS), the target mRNA inhibition was 44% (KARPAS-229, 0.44444 µM); 60% (KARPAS-229, 1.33333 µM); 70% and 74% (KARPAS-229, 4 µM); 86% (KARPAS-229, 12 µM).

Under “KARPAS-229, 4 µM”, “TTGTCTAGTGTCATGG (sugars k3 d9 k3 e1, PS)” showed a target mRNA inhibition of 20%.

Where the note is “KARPAS-229, 4 µM”, “ATCACCACTGTGTACC (sugars kdddddddddkekeke, PS)” registered a target mRNA inhibition of 0%.

“TGCACTGACACAGGCG (sugars k2 d9 e3 k2, PS)” displayed a target mRNA inhibition (KARPAS-229, 4 µM) of 18%.

Under “KARPAS-229, 4 µM”, “TTCTTGGACTCTCAAG (sugars kddddddddddkekek, PS)” had a target mRNA inhibition of 0%.

On to “CTTGGTCTTGACCTCC (sugars kkkdddddddddkeke, PS)”, for which the target mRNA inhibition (KARPAS-229, 4 µM) was 15%.
